IC50 data for 25 molecules are collected here from patent publication US9682083B2, “Pyrrolo[2,3-D]pyrimidine derivatives, process for their preparation and their use as kinase inhibitors” (NERVIANO MEDICAL SCIENCES S.R.L., priority 2013, dated 2017).

A value given as a limit tells only on which side of the number the result lay.

Common to all, as to type: cell-based
The subject of one experiment is A2780 ovarian carcinoma. Briefly: In vitro cell proliferation assay (CellTiterGlo), A2780 control line. The conditions noted are these: Homo sapiens, antiproliferative activity, 72 hours exposure, non RET-dependent control cell line. How it is done:
(§1) In Vitro Cell Proliferation Assay
(§2) To evaluate the antiproliferative activity of a compound of formula (I) the following human cell lines were used: A2780 ovarian carcinoma; TT and MZ-CRC-1 medullary thyroid carcinoma, harboring a mutated RET-C634W and RET-M918T receptor respectively; LC-2/ad human lung adenocarcinoma, harboring the CCDC6-RET fusion protein. Exponentially growing cells were seeded and incubated at 37° C. in a humidified 5% CO2 atmosphere using appropriate medium supplemented with 10% Fetal Bovine Serum. 24 hours following cell plating, scalar doses of the compounds dissolved in 0.1% DMSO were added to the medium and cells were exposed to drugs for either 72 hours (A2780) or 144 hours (TT, MZ-CRC-1 and LC-2/ad), according to their different proliferation rate. At the end of treatment, cell proliferation was determined by an intracellular ATP monitoring system (CellTiterGlo—Promega), following manufacturer's instructions, and using an Envision instrument (PerkinElmer) as reader. Data obtained from compound versus vehicle treated cells were compared using Assay Explorer (Symyx Technologies Inc) software. IC50 values were calculated using sigmoidal interpolation curve fitting.
(§3) In the following Table A the antiproliferative activity of representative compounds of formula (I) on two medullary thyroid carcinoma cell lines expressing the aforementioned mutated forms of RET (TT and MZ-CRC-1) and on one lung adenocarcinoma cell line harboring the aforementioned fusion form of RET (LC-2/ad) is reported. As control, the antiproliferative activity of the same compounds on an unrelated non RET-dependent cell line (A2780) is reported. All these compounds show remarkable activity on RET-driven cellular models with respect to the unrelated ones.

In experiment [1] the test system is TT medullary thyroid carcinoma, harboring a mutated RET-C634W receptor. The experiment in a line: In vitro cell proliferation assay (CellTiterGlo), TT. As to conditions: Homo sapiens, antiproliferative activity, 144 h exposure. How it is done: as §1, §2, §3
The subject of experiment [2] is LC-2/ad human lung adenocarcinoma, harboring the CCDC6-RET fusion protein. Briefly: In vitro cell proliferation assay (CellTiterGlo), LC-2/ad. As to conditions: antiproliferative activity, 144 h exposure. How it is done: as §1, §2, §3
The subject of experiment [3] is MZ-CRC-1 medullary thyroid carcinoma, harboring a mutated RET-M918T receptor. The experiment in a line: In vitro cell proliferation assay (CellTiterGlo), MZ-CRC-1. The conditions noted are these: Homo sapiens, antiproliferative activity, 144 h exposure. How it is done:
as §1, §2, §3

`Nc1ncnc2[nH]cc(C#Cc3cccc(NC(=O)c4ccccc4)c3)c12` [cmpd 9, N-{3-[(4-amino-7H-pyrrolo[2,3-d]pyrimidin-5-yl)ethynyl]phenyl}benzamide]: the 50% inhibitory concentration (IC50) in the experiment with A2780 ovarian carcinoma is 6.91 µM; in experiment [1], 0.865 µM.
The corresponding values for `Nc1ncnc2[nH]cc(C#Cc3cccc(NC(=O)Cc4cccc(C(F)(F)F)c4)c3)c12` [cmpd 11, N-[3-(4-Amino-7H-pyrrolo[2,3-d]pyrimidin-5-ylethynyl)-phenyl]-2-(3-trifluoromethyl-phenyl)-acetamide] are 0.601 µM and 0.249 µM.
Take `CCN1CCN(Cc2ccc(NC(=O)Cc3cccc(C#Cc4c[nH]c5ncnc(N)c45)c3)cc2C(F)(F)F)CC1` [cmpd 12, 2-[3-(4-Amino-7H-pyrrolo[2,3-d]pyrimidin-5-ylethynyl)-phenyl]-N-[4-(4-ethyl-piperazin-1-ylmethyl)-3-trifluoromethyl-phenyl]-acetamide]: the IC50 in experiment [2] came to 0.111 µM; in experiment [3] it was 0.222 µM; in the experiment on A2780 ovarian carcinoma, 0.695 µM; in experiment [1], 0.012 µM.
In the case of `Nc1ncnc2[nH]cc(C#Cc3cccc(C(=O)NC4CC4)c3)c12` [cmpd 15, 3-[(4-amino-7H-pyrrolo[2,3-d]pyrimidin-5-yl)ethynyl]-N-cyclopropylbenzamide], the results for the IC50 (in the experiment on A2780 ovarian carcinoma; in experiment [1]) were 4.37 µM and 0.192 µM, respectively.
`Nc1ncnc2[nH]cc(C#Cc3cccc(NC(=O)c4cccc(C(F)(F)F)c4)c3)c12` [cmpd 24, N-{3-[(4-amino-7H-pyrrolo[2,3-d]pyrimidin-5-yl)ethynyl]phenyl}-3-(trifluoromethyl)benzamide]: the IC50 in experiment [2] is 0.066 µM; in experiment [3], 0.024 µM; in the experiment with A2780 ovarian carcinoma it was 0.137 µM; in experiment [1], 0.003 µM.
In the case of `Nc1ncnc2[nH]cc(C#Cc3cccc(NC(=O)c4cccc(F)c4)c3)c12` [cmpd 26, N-{3-[(4-amino-7H-pyrrolo[2,3-d]pyrimidin-5-yl)ethynyl]phenyl}-3-fluorobenzamide], the half-inhibitory concentration (IC50) came out at 0.49 µM in experiment [2], 3.67 µM with A2780 ovarian carcinoma and 0.14 µM in experiment [1].
Consider `Cc1ccc(C(=O)Nc2cccc(C#Cc3c[nH]c4ncnc(N)c34)c2)cc1` [cmpd 31, N-{3-[(4-amino-7H-pyrrolo[2,3-d]pyrimidin-5-yl)ethynyl]phenyl}-4-methylbenzamide], for which the IC50 in the experiment with A2780 ovarian carcinoma came out at 4.45 µM; in experiment [1], 0.111 µM.
For `Nc1ncnc2c1c(C#Cc1cccc(C(=O)NC3CC3)c1)cn2CC(F)(F)F` [cmpd 36, 3-{[4-amino-7-(2,2,2-trifluoroethyl)-7H-pyrrolo[2,3-d]pyrimidin-5-yl]ethynyl}-N-cyclopropylbenzamide], the concentration for half-maximal inhibition (IC50) in experiment [2] was determined as 0.058 µM; in experiment [3], 0.166 µM; in the experiment with A2780 ovarian carcinoma, 1.73 µM; in experiment [1] it was 0.053 µM.
The corresponding values for `Nc1ncnc2c1c(C#Cc1cccc(C(=O)NC3CC3)c1)cn2CCO` [cmpd 37, 3-{[4-amino-7-(2-hydroxyethyl)-7H-pyrrolo[2,3-d]pyrimidin-5-yl]ethynyl}-N-cyclopropylbenzamide] are 0.115 µM, 0.271 µM, 6.79 µM and 0.109 µM.
Take `CN1CCC(n2cc(C#Cc3cccc(C(=O)NC4CC4)c3)c3c(N)ncnc32)CC1` [cmpd 46, 3-{[4-amino-7-(1-methylpiperidin-4-yl)-7H-pyrrolo[2,3-d]pyrimidin-5-yl]ethynyl}-N-cyclopropylbenzamide]: the half-maximal inhibitory concentration (IC50) is 0.02 µM in experiment [2], 4.32 µM in the experiment with A2780 ovarian carcinoma and 0.023 µM in experiment [1].
Turning to `Cc1ccc(C(=O)NC2CC2)cc1C#Cc1cn(C(C)C)c2ncnc(N)c12` [cmpd 51, 3-{[4-amino-7-(propan-2-yl)-7H-pyrrolo[2,3-d]pyrimidin-5-yl]ethynyl}-N-cyclopropyl-4-methylbenzamide], the 50% inhibitory concentration (IC50) in experiment [2] is 0.019 µM; in the experiment on A2780 ovarian carcinoma it was 1.59 µM; in experiment [1] it was 0.016 µM.
The corresponding values for `CC(C)n1cc(C#Cc2cc(C(=O)NC3CC3)ccc2F)c2c(N)ncnc21` [cmpd 53, 3-{[4-amino-7-(propan-2-yl)-7H-pyrrolo[2,3-d]pyrimidin-5-yl]ethynyl}-N-cyclopropyl-4-fluorobenzamide] are 0.009 µM, 0.837 µM and 0.01 µM.
The corresponding values for `CC(C)n1cc(C#Cc2cc(F)cc(C(=O)NC3CC3)c2)c2c(N)ncnc21` [cmpd 58, 3-{[4-amino-7-(propan-2-yl)-7H-pyrrolo[2,3-d]pyrimidin-5-yl]ethynyl}-N-cyclopropyl-5-fluorobenzamide] are 0.004 µM, 0.539 µM and 0.004 µM.
Regarding `Nc1ncnc2c1c(C#Cc1cccc(C(=O)NC3CC3)c1)cn2-c1cccnc1` [cmpd 68, 3-{[4-amino-7-(pyridin-3-yl)-7H-pyrrolo[2,3-d]pyrimidin-5-yl]ethynyl}-N-cyclopropylbenzamide], the concentration for half-maximal inhibition (IC50) stood at 0.021 µM in experiment [2], 7.18 µM with A2780 ovarian carcinoma and 0.043 µM in experiment [1].
Consider `COc1cccc(-n2cc(C#Cc3cccc(C(=O)NC4CC4)c3)c3c(N)ncnc32)c1` [cmpd 70, 3-{[4-amino-7-(3-methoxyphenyl)-7H-pyrrolo[2,3-d]pyrimidin-5-yl]ethynyl}-N-cyclopropylbenzamide], for which the IC50 is 0.213 µM in experiment [2], over 10 µM in the experiment on A2780 ovarian carcinoma and 0.213 µM in experiment [1].
As for `CCN1CCN(Cc2ccc(NC(=O)c3cccc(C#Cc4cn(C(C)C)c5ncnc(N)c45)c3)cc2C(F)(F)F)CC1` [cmpd 82, 3-{[4-amino-7-(propan-2-yl)-7H-pyrrolo[2,3-d]pyrimidin-5-yl]ethynyl}-N-{4-[(4-ethylpiperazin-1-yl)methyl]-3-(trifluoromethyl)phenyl}benzamide], the results for the 50% inhibitory concentration (IC50) (in experiment [2]; in the experiment with A2780 ovarian carcinoma; in experiment [1]) were 0.004 µM, 0.046 µM and 0.001 µM, respectively.
The corresponding values for `CCC(C)n1cc(C#Cc2cccc(C(=O)NC3CC3)c2)c2c(N)ncnc21` (stereo not drawn) [cmpd 85, 3-{[4-amino-7-(butan-2-yl)-7H-pyrrolo[2,3-d]pyrimidin-5-yl]ethynyl}-N-cyclopropylbenzamide] are 0.024 µM, 1.6 µM and 0.03 µM.
The corresponding values for `Nc1ncnc2c1c(C#Cc1cccc(C(=O)NC3CC3)c1)cn2CCF` [cmpd 86, 3-{[4-amino-7-(2-fluoroethyl)-7H-pyrrolo[2,3-d]pyrimidin-5-yl]ethynyl}-N-cyclopropylbenzamide] are 0.018 µM, 1.91 µM and 0.025 µM.
The corresponding values for `CCn1c(C)c(C#Cc2cccc(C(=O)NC3CC3)c2)c2c(N)ncnc21` [cmpd 87, 3-[(4-amino-7-ethyl-6-methyl-7H-pyrrolo[2,3-d]pyrimidin-5-yl)ethynyl]-N-cyclopropylbenzamide] are 0.012 µM, 1.53 µM and 0.019 µM.
For `CC1(Cn2cc(C#Cc3cccc(C(=O)NC4CC4)c3)c3c(N)ncnc32)COC1` [cmpd 88, 3-({4-amino-7-[(3-methyloxetan-3-yl)methyl]-7H-pyrrolo[2,3-d]pyrimidin-5-yl}ethynyl)-N-cyclopropylbenzamide], the figures for the IC50 (in experiment [2]; with A2780 ovarian carcinoma; in experiment [1]) were 0.048 µM, 1.52 µM and 0.052 µM, respectively.
With `CN1CCC(n2cc(C#Cc3cccc(C(=O)NC4CC4)c3)c3c(N)ncnc32)C1` (stereo not drawn) [cmpd 89, 3-{[4-amino-7-(1-methylpyrrolidin-3-yl)-7H-pyrrolo[2,3-d]pyrimidin-5-yl]ethynyl}-N-cyclopropylbenzamide], the IC50 in experiment [2] was 0.127 µM; with A2780 ovarian carcinoma, 6.69 µM; in experiment [1], 0.136 µM.
The corresponding values for `Nc1ncnc2c1c(C#Cc1cccc(C(=O)NC3CC3)c1)cn2CC1CCC1` [cmpd 95, 3-{[4-amino-7-(cyclobutylmethyl)-7H-pyrrolo[2,3-d]pyrimidin-5-yl]ethynyl}-N-cyclopropylbenzamide] are 0.032 µM, 2.45 µM and 0.06 µM.
In the case of `Nc1ncnc2c1c(C#Cc1cccc(C(=O)NC3CC3)c1)cn2CC1CC1` [cmpd 99, 3-{[4-amino-7-(cyclopropylmethyl)-7H-pyrrolo[2,3-d]pyrimidin-5-yl]ethynyl}-N-cyclopropylbenzamide], the 50% inhibitory concentration (IC50) in experiment [2] amounted to 0.019 µM; with A2780 ovarian carcinoma it was 1.79 µM; in experiment [1], 0.017 µM.
The corresponding values for `CC(C)n1cc(C#Cc2cc(C(=O)NC3CC3)ccc2C#N)c2c(N)ncnc21` [cmpd 108, 3-{[4-amino-7-(propan-2-yl)-7H-pyrrolo[2,3-d]pyrimidin-5-yl]ethynyl}-4-cyano-N-cyclopropylbenzamide] are 0.045 µM, 6.11 µM and 0.023 µM.
The corresponding values for `CC(C)n1cc(C#Cc2cccc(C(N)=O)c2)c2c(N)ncnc21` [cmpd 110, 3-{[4-amino-7-(propan-2-yl)-7H-pyrrolo[2,3-d]pyrimidin-5-yl]ethynyl}benzamide] are 0.279 µM, 5.88 µM and 0.227 µM.
